“Also recorded” adds a separate entry of the source.
Key:
[1] = system: A2058 human melanoma cells; assay: A2058 melanoma xenograft in CD-1 nude mice, combination with DTIC (1.6); assay type: in vivo, human cells in mice; settings: SEQ ID NO:1 10 mg/kg i.v. every other day, DTIC 80 mg/kg i.v. days 6-10
Procedure: After 52 days the mice were sacrificed and the tumours weighed. […] Mitoxantrone was administered intravenously once at the beginning of the treatments at a dose of 2 mg/kg (FIG. 4A) or once a week for four weeks at a reduced dose of 0.8 mg/kg (FIG. 4B). All treatments were stopped at day 50 (FIG. 4A) or 48 (FIG. 4B), respectively. […] Mitoxantrone was administered intravenously once at the beginning of the treatments at a dose of 2 mg/kg (FIG. 5A) or once a week for four weeks at a reduced dose of 0.8 mg/kg (FIG. 5B). All treatments were stopped at day 42 (FIG. 5A) or 38 (FIG. 5B), respectively. […] A2058 is a metastatic melanoma cell line. […] All treatments were stopped at day 24. […] Taxol was administered intravenously once a week at a dose of 10 mg/kg for three (FIG. 7A) or four weeks (FIG. 7C). Doxorubicin was administered intravenously once a week at a dose of 5 mg/kg for first three weeks (FIG. 7A) or for two weeks (FIG. 7C). All treatments were stopped at day 33 (FIG. 7A) or at day 26 (FIG. 7C), respectively. […] In FIG. 7C, antitumour activities were estimated by the inhibition of tumour volume, which was measured with calipers. Each point represents mean tumour volume calculated from 10 animals per experimental group. […] Taxol was administered intravenously once a week for first three weeks and intraperitoneally once a week for next two weeks at a dose of 10 mg/kg. Cisplatin was administered intravenously once a week for first three weeks and intraperitoneally once a week for next two weeks at a dose of 4 mg/kg. All treatments were stopped at day 40. Antitumour activities were estimated by the inhibition of tumour volume, which was measured with caliper. Each point represents mean tumour volume calculated from 9 animals per experimental group.

[2] = system: Hep G2 human liver cancer cells; assay: HepG2 liver tumour growth in CD-1 nude mice (3.7); assay type: in vivo, human cells in mice
Procedure: Treatments lasted for 14 days thereafter. Antitumour activities were estimated by the inhibition of tumour volume, which was measured with a caliper on four different occasions over the treatment period. Each point represents mean tumour volume calculated from 5 animals per experimental group. […] Control animals (control) received saline alone for the same period. At the end of the treatments, the animals were sacrificed, tumours were excised and their weights were measured. Each bar represents mean tumour weight calculated from 6 animals per experimental group. […] Treatments lasted for 24 days thereafter. Antitumour activities were estimated by the inhibition of tumour volume, which was measured with a caliper at two-day intervals over the treatment period. Each point represents mean tumour volume calculated from 4 animals per experimental group. […] Treatments lasted for 24 days thereafter. Antitumour activities were estimated by the inhibition of tumour volume, which was measured with a caliper at two-day intervals over the treatment period. Each point represents mean tumour volume calculated from 4 animals per experimental group. […] Treatments lasted for 22 days thereafter. […] Each point represents mean tumour volume calculated from 5 animals per experimental group. […] Treatments lasted for 14 days thereafter. Antitumour activities were estimated by the inhibition of tumour volume, which was measured with a caliper on four different occasions over 16-day period. Each point represents mean tumour volume calculated from 5 animals per experimental group. […] Two different batches of SEQ ID NO:1, synthesized at different times (designated as batch 1 and batch 2), were tested to detect possible batch-specific effects. […] Treatments lasted for 34 days thereafter. Antitumour activities were estimated by the inhibition of tumour volume, which was measured with a caliper at two-day intervals over the treatment period. Each point represents mean tumour volume calculated from 5 animals per experimental group. […] Treatments lasted for 30 days thereafter. Antitumour activities were estimated by the inhibition of tumour volume, which was measured with a caliper at various time intervals over the span of 30 days. Each point represents mean tumour volume calculated from 6 animals per experimental group. […] All treatments were stopped at day 36. Antitumour activities were estimated by the inhibition of tumour volume, which was measured with a caliper. Each point represents mean tumour volume calculated from 5 animals per experimental group. […] All treatments were stopped at day 52. […] Antitumour activities were estimated by the inhibition of tumour volume, which was measured with a caliper.

[3] = system: Caki-1 human kidney cancer cells; assay: Caki-1 kidney tumour growth in CD-1 nude mice (3.8); assay type: in vivo, human cells in mice
Procedure: Treatments lasted for 14 days thereafter. Antitumour activities were estimated by the inhibition of tumour volume, which was measured with a caliper on four different occasions over the treatment period. Each point represents mean tumour volume calculated from 5 animals per experimental group. […] Control animals (control) received saline alone for the same period. At the end of the treatments, the animals were sacrificed, tumours were excised and their weights were measured. Each bar represents mean tumour weight calculated from 6 animals per experimental group. […] Treatments lasted for 24 days thereafter. Antitumour activities were estimated by the inhibition of tumour volume, which was measured with a caliper at two-day intervals over the treatment period. Each point represents mean tumour volume calculated from 4 animals per experimental group. […] Treatments lasted for 24 days thereafter. Antitumour activities were estimated by the inhibition of tumour volume, which was measured with a caliper at two-day intervals over the treatment period. Each point represents mean tumour volume calculated from 4 animals per experimental group. […] Each point represents mean tumour volume calculated from 5 animals per experimental group. […] Antitumour activities were estimated by the inhibition of tumour volume, which was measured with a caliper on four different occasions over 16-day period. […]

[4] = system: human Burkitt's lymphoma (Raji) cells; assay: Survival of SCID mice bearing human Burkitt's lymphoma (Raji); assay type: in vivo, human cells in mice
Procedure: Mice with established human Burkitt's lymphoma tumours were treated every second day with either saline or SEQ ID NO:1 for 44 days as described above. The control group mice all died from disease progression by day 20. At day 44, the SEQ ID NO:1 mice continued treatment on a weekly basis until stopping the treatment at day 73.
As an additional test of efficacy SEQ ID NO:1 was administered to SCID mice bearing active Burkitt's lymphoma (FIG. 30). Viable human Burkitt's lymphoma (Raji) cells (5×10^6) collected from subconfluent logarithmically growing cultures were injected i.v. into each animal and disease was allowed to establish for 2 days. SEQ ID NO:1, SEQ ID NO:3 and SEQ ID NO:2, in normal saline were administered by tail vein injection every second day at a dose of 10 mg/kg. At day 40 the treatment schedule was reduced to 10 mg/kg every 3 days. Control animals received saline alone, without oligonucleotide. Survival is presented as a percentage of the starting number of mice over time.

[5] = system: R3 mouse fibrosarcoma cells; assay: R3 mouse fibrosarcoma tumour growth in C3H mice; assay type: in vivo
Procedure: Treatments lasted for 14 days thereafter. Anti-tumour activities were estimated by the inhibition of tumour volume, which was measured with a calliper at two-day intervals starting from day 9. Each point in FIG. 27A represents the mean tumour volume calculated from 6-7 animals per experimental group. […] SEQ ID NO:1 had significant anti-tumour activity compared to saline (P=0.0006), scrambled (P=0.0001) and mismatched (0.0002) controls.
At the end of the treatments, the animals were sacrificed, tumours were excised and their weights were measured. Each bar in FIG. 27C represents mean tumour weight and standard error calculated from 6-8 animals per experimental group. P values compared to saline were as follows: 0.5 mg/kg (P=0.04), 2 mg/kg (P=0.0001), 5 mg/kg (P=0.0015), 10 mg/kg (P=0.0001), 30 mg/kg (P=0.0001).

## 5′-GGCTAAATCGCTCCACCAAG-3′ (all phosphorothioate, sugars by position and methylation of C not given here) [SEQ ID NO: 1, fully phosphorothioated antisense oligonucleotide that hybridizes to the coding region of R2 mRNA]
[1]; A2058 (melanoma), CD-1
  Tumour weight as % of saline control: 20%
[1]; A2058, CD-1 nude mice
  Antitumour effect (tumour weight, FIG. 6): significant delay of tumour growth compared to saline control; also recorded: superior to the inhibitory effects observed with DTIC alone
[2]; Hep G2, CD-1 nude mice, 2.5 mg/kg i.v. every day, 30 days
  Inhibitory effect on tumour growth (tumour volume, FIG. 20): significant inhibitory effects on the growth of human hepatoma cells
[2]; Human Liver Carcinoma
  Inhibition of tumour weight: ~65%
[2]; Human Liver Carcinoma in CD-1 nude mice, Day 30 after tumour implantation
  Inhibition of tumour size: Inhibition of tumour size by 45% in CD-1 nude
[3]; Caki-1, CD-1 nude mice, 10 mg/kg i.v. every other day to day 36
  Inhibitory effect on tumour growth (tumour volume, FIG. 21A): powerful inhibitory effects on the growth of human renal carcinoma cells, resulting in total regression of the tumours in three mice
[3]; Human Renal Carcinoma (first entry of Table 5)
  Inhibition of tumour size: Approximately 90% inhibition of tumour size
[4]; SCID mice (Example 7, FIG. 30), 10 mg/kg i.v. every second day, from day 40 every 3 days, 10 mg/kg
  Survival of mice: survived to the end of the study; also recorded: dramatic increase in survival time of mice well beyond the treatment period
[4]; SCID mice, 10 mg/kg i.v. every second day, stopped at day 42, sacrificed day 73, untreated all died within 23 days
  Survival of mice: survived beyond day 73 except one mouse, which died at day 69
[4]; second independent study, every second day for 44 days then weekly until day 73, controls all died by day 20
  Survival of mice: All mice survived to the end of the experimental period (140 days)
[5]; Mouse Fibrosarcoma
  Inhibition of tumour weight: ~80%
[5]; Mouse Fibrosarcoma in C3H mice at doses of 0.5 to 30 mg/kg
  Dose dependence of tumour weight: Dose-dependent decrease in tumour weight in
[5]; Mouse Fibrosarcoma in C3H mice, Day 15 after tumour implantation
  Inhibition of tumour volume: approximately 80% on Day 15 after tumour laimpntation
[5]; R3, C3H mice, 5 mg/kg i.v. every other day, 14 days
  Anti-tumour efficacy (tumour volume, FIG. 27A): significant anti-tumour efficacy compared to saline, scrambled and mismatched controls
[5]; R3, C3H mice, 0.5-30 mg/kg
  Dose dependence of anti-tumour activity (FIG. 27C): dose-dependent anti-tumour activity

— patent publication US7968526B2, “Antisense oligonucleotides directed to ribonucleotide reductase R2 and uses thereof in the treatment of cancer” (Lorus Therapeutics Inc., priority 2003, dated 2011)
